Patent US10556907B2 (AbbVie Inc., priority 2015, dated 2020)

Experiments:
Assay in all cases: Method 1: intracellular Ca2+ release (FLIPR, Calcium 5) in recombinant CHO-K1 cells
Assay type in all cases: cell-based
human S1PR1 receptor = target: T1, human S1PR1 receptor (Homo sapiens, UniProt P21453); conditions: (1): determined with method 1; read-out: S1P1 EC50
T1 construct: host or cells: CHO-K1
Method in brief: (§1)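 For antagonist mode, compounds were pre-incubated 10 min before phospho-fingolimod at EC80; in agonist mode, compounds were added directly to Calcium 5-loaded CHO-K1 cells co-expressing Gq/i5. Fluorescence was measured on FLIPR, and EC50 was fitted relative to the phospho-fingolimod curve.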

human S1PR3 receptor = target: T2, human S1PR3 receptor (Homo sapiens, UniProt Q99500); conditions: (1): determined with method 1; read-out: S1P3 EC50
T2 construct: host or cells: CHO-K1
Method in brief: as §1

human S1PR4 receptor = target: T3, human S1PR4 receptor (Homo sapiens, UniProt O95977); conditions: (1): determined with method 1; read-out: S1P4 EC50
T3 construct: host or cells: CHO-K1
T3 sequence (O95977 1-384): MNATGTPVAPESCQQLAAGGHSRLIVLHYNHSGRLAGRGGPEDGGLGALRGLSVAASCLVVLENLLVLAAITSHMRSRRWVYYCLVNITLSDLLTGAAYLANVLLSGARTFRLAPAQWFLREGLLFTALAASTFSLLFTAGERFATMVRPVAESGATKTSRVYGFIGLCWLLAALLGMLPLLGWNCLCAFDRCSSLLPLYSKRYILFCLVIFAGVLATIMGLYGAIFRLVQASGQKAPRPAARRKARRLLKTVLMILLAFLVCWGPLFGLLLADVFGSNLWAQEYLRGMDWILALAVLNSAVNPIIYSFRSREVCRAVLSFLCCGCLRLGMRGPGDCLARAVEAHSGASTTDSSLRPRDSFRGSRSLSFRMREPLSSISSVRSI
Method in brief: as §1

human S1PR5 receptor = target: T4, human S1PR5 receptor (Homo sapiens, UniProt Q9H228); conditions: agonist potency, determined with method 1 (symbols A-D); read-out: S1P5 EC50 range
T4 construct: host or cells: CHO-K1
Method in brief: as §1

T4 sequence (Q9H228 whole entry): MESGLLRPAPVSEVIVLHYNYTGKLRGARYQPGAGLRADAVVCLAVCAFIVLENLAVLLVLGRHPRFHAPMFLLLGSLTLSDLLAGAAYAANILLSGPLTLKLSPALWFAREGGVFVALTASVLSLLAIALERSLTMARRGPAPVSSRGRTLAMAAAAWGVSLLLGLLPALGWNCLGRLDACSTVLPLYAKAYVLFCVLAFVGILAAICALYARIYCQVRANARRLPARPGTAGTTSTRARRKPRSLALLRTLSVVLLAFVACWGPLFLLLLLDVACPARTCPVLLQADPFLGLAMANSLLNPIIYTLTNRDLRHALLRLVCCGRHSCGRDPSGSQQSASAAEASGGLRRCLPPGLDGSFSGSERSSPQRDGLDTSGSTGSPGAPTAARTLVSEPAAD
T2 sequence (Q99500 whole entry): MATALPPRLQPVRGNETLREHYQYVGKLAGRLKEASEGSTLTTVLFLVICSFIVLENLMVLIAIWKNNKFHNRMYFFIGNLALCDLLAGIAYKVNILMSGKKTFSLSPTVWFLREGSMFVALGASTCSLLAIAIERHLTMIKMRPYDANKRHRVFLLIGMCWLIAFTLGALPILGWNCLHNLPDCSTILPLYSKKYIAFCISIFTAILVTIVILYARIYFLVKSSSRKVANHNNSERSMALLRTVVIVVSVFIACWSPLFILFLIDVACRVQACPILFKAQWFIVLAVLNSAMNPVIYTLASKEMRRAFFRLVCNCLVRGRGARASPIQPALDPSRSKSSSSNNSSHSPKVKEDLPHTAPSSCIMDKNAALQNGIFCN
T1 sequence (P21453 whole entry): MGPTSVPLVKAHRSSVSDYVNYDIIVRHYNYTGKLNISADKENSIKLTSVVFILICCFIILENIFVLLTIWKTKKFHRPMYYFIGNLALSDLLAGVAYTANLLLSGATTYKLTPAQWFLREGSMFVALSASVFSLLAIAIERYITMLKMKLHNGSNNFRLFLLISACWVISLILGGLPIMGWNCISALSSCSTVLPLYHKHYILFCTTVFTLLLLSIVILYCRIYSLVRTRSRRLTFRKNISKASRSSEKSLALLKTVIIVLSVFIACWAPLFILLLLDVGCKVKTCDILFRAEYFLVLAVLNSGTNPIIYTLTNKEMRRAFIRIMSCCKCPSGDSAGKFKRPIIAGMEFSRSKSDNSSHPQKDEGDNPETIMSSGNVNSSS

| Structure (SMILES) | EC50 (human S1PR1 receptor) | EC50 (human S1PR3 receptor) | EC50 (human S1PR4 receptor) | EC50 (human S1PR5 receptor) |
| --- | --- | --- | --- | --- |
| O=C(O)CCCN1CCc2nc(-c3ccc(OCc4ccc(Cl)cc4)cc3)ncc2C1 [Compound 40, 4-(2-(4-((4-chlorobenzyl)oxy)phenyl)-7,8-dihydropyrido[4,3-d]pyrimidin-6(5H)-yl)butanoic acid] | > 1000 nM | > 1000 nM | > 1000 nM | < 10 nM |
| CC(CC(=O)O)N1CCc2nc(-c3ccc(OCc4ccc(Cl)c(Cl)c4)cc3)ncc2C1 (centres unmarked) [Compound 45, 3-(2-(4-((3,4-dichlorobenzyl)oxy)phenyl)-7,8-dihydropyrido[4,3-d]pyrimidin-6(5H)-yl)butanoic acid] | > 1000 nM | > 1000 nM | > 1000 nM | 10 to 100 nM |
| O=C(O)CCCN1CCc2nc(Cc3ccccc3)ncc2C1 [Compound 50, 4-(2-benzyl-7,8-dihydropyrido[4,3-d]pyrimidin-6(5H)-yl)butanoic acid] | > 1000 nM | > 1000 nM | > 1000 nM | 1000 to 10000 nM |
| O=C(O)CCCN1CCc2nc(Cc3c(F)cccc3F)ncc2C1 [Compound 51, 4-(2-(2,6-difluorobenzyl)-7,8-dihydropyrido[4,3-d]pyrimidin-6(5H)-yl)butanoic acid] | > 1000 nM | > 1000 nM | > 1000 nM | 1000 to 10000 nM |
| O=C(O)C1CC(N2CCc3nc(Cc4c(F)cccc4F)ncc3C2)C1 (centres unmarked) [Compound 53, 3-(2-(2,6-difluorobenzyl)-7,8-dihydropyrido[4,3-d]pyrimidin-6(5H)-yl)cyclobutanecarboxylic acid] | > 1000 nM | > 1000 nM | > 1000 nM | 1000 to 10000 nM |
| O=C(O)C1CC(N2CCc3nc(C#Cc4ccc(Cl)cc4)ncc3C2)C1 (centres unmarked) [Compound 54, 3-(2-((4-chlorophenyl)ethynyl)-7,8-dihydropyrido[4,3-d]pyrimidin-6(5H)-yl)cyclobutanecarboxylic acid] | > 1000 nM | > 1000 nM | > 1000 nM | 1000 to 10000 nM |
| Cc1ccccc1C#Cc1ncc2c(n1)CCN(C1CC(C(=O)O)C1)C2 (centres unmarked) [Compound 55, 3-(2-(o-tolylethynyl)-7,8-dihydropyrido[4,3-d]pyrimidin-6(5H)-yl)cyclobutanecarboxylic acid] | > 1000 nM | > 1000 nM | > 1000 nM | 1000 to 10000 nM |
| CCOc1ccc(C#Cc2ncc3c(n2)CCN(C2CC(C(=O)O)C2)C3)cc1 (centres unmarked) [Compound 56, 3-(2-((4-ethoxyphenyl)ethynyl)-7,8-dihydropyrido[4,3-d]pyrimidin-6(5H)-yl)cyclobutanecarboxylic acid] | > 1000 nM | > 1000 nM | > 1000 nM | 1000 to 10000 nM |
| O=C(O)C1CC(N2CCc3nc(C#Cc4ccc(F)cc4)ncc3C2)C1 (centres unmarked) [Compound 57, 3-(2-((4-fluorophenyl)ethynyl)-7,8-dihydropyrido[4,3-d]pyrimidin-6(5H)-yl)cyclobutanecarboxylic acid] | > 1000 nM | > 1000 nM | > 1000 nM | 1000 to 10000 nM |
| CC(C)c1ccc(C#Cc2ncc3c(n2)CCN(C2CC(C(=O)O)C2)C3)cc1 (centres unmarked) [Compound 58, 3-(2-((4-isopropylphenyl)ethynyl)-7,8-dihydropyrido[4,3-d]pyrimidin-6(5H)-yl)cyclobutanecarboxylic acid] | > 1000 nM | > 1000 nM | > 1000 nM | 1000 to 10000 nM |
| O=C(O)C1CC(N2CCc3nc(C#Cc4ccc(OCc5ccccc5)cc4)ncc3C2)C1 (centres unmarked) [Compound 59, 3-(2-((4-(benzyloxy)phenyl)ethynyl)-7,8-dihydropyrido[4,3-d]pyrimidin-6(5H)-yl)cyclobutanecarboxylic acid] | > 1000 nM | > 1000 nM | > 1000 nM | 1000 to 10000 nM |
| O=C(O)C1CC(N2CCc3nc(C#Cc4ccccc4Cl)ncc3C2)C1 (centres unmarked) [Compound 60, 3-(2-((2-chlorophenyl)ethynyl)-7,8-dihydropyrido[4,3-d]pyrimidin-6(5H)-yl)cyclobutanecarboxylic acid] | > 1000 nM | > 1000 nM | > 1000 nM | 1000 to 10000 nM |

The remaining lines, values ahead:

| EC50 (human S1PR1 receptor) | EC50 (human S1PR3 receptor) | EC50 (human S1PR4 receptor) | EC50 (human S1PR5 receptor) | Structure (SMILES) |
| --- | --- | --- | --- | --- |
| > 1000 nM | > 1000 nM | > 1000 nM | 100 to 1000 nM | O=C(O)CC1CC(N2CCc3nc(-c4ccc(OCc5ccc(Cl)cc5)cc4)ncc3C2)C1 (centres unmarked) [Compound 2, 2-(3-(2-(4-((4-chlorobenzyl)oxy)phenyl)-7,8-dihydropyrido[4,3-d]pyrimidin-6(5H)-yl)cyclobutyl)acetic acid] |
| > 1000 nM | > 1000 nM | > 1000 nM | 100 to 1000 nM | O=C(O)CC1CC(N2CCc3nc(-c4ccc(OCc5cccc(Cl)c5)cc4)ncc3C2)C1 (centres unmarked) [Compound 3, 2-(3-(2-(4-((3-chlorobenzyl)oxy)phenyl)-7,8-dihydropyrido[4,3-d]pyrimidin-6(5H)-yl)cyclobutyl)acetic acid] |
| > 1000 nM | > 1000 nM | > 1000 nM | < 10 nM | CC(CN1CCc2nc(-c3ccc(OCc4cccc(F)c4)cc3)ncc2C1)C(=O)O (centres unmarked) [Compound 8, 3-(2-(4-((3-fluorobenzyl)oxy)phenyl)-7,8-dihydropyrido[4,3-d]pyrimidin-6(5H)-yl)-2-methylpropanoic acid] |
| > 1000 nM | > 1000 nM | > 1000 nM | < 10 nM | CC(CN1CCc2nc(-c3ccc(OCc4ccc(Cl)cc4)cc3)ncc2C1)C(=O)O (centres unmarked) [Compound 12, 3-(2-(4-((4-chlorobenzyl)oxy)phenyl)-7,8-dihydropyrido[4,3-d]pyrimidin-6(5H)-yl)-2-methylpropanoic acid] |
| > 1000 nM | > 1000 nM | > 1000 nM | < 10 nM | CC(CN1CCc2nc(-c3ccc(OCc4ccc(Cl)c(Cl)c4)cc3)ncc2C1)C(=O)O (centres unmarked) [Compound 14, 3-(2-(4-((3,4-dichlorobenzyl)oxy)phenyl)-7,8-dihydropyrido[4,3-d]pyrimidin-6(5H)-yl)-2-methylpropanoic acid] |
| > 1000 nM | > 1000 nM | > 1000 nM | < 10 nM | CC(CN1CCc2nc(-c3ccc(OCc4cc(Cl)cc(Cl)c4)cc3)ncc2C1)C(=O)O (centres unmarked) [Compound 17, 3-(2-(4-((3,5-dichlorobenzyl)oxy)phenyl)-7,8-dihydropyrido[4,3-d]pyrimidin-6(5H)-yl)-2-methylpropanoic acid] |
| > 1000 nM | > 1000 nM | < 1000 nM | 10 to 100 nM | CCc1cccc(Cl)c1COc1ccc(-c2ncc3c(n2)CCN(CC(C)C(=O)O)C3)cc1 (centres unmarked) [Compound 18, 3-(2-(4-((2-chloro-6-ethylbenzyl)oxy)phenyl)-7,8-dihydropyrido[4,3-d]pyrimidin-6(5H)-yl)-2-methylpropanoic acid] |
| > 1000 nM | > 1000 nM | > 1000 nM | < 10 nM | CC(CC(=O)O)CN1CCc2nc(-c3ccc(OCc4cccc(Cl)c4)cc3)ncc2C1 (centres unmarked) [Compound 22, 4-(2-(4-((3-chlorobenzyl)oxy)phenyl)-7,8-dihydropyrido[4,3-d]pyrimidin-6(5H)-yl)-3-methylbutanoic acid] |
| > 1000 nM | > 1000 nM | > 1000 nM | 1000 to 10000 nM | O=C(O)CN1CCc2nc(Cc3ccccc3)ncc2C1 [Compound 24, 2-(2-benzyl-7,8-dihydropyrido[4,3-d]pyrimidin-6(5H)-yl)acetic acid] |
| > 1000 nM | > 1000 nM | > 1000 nM | 10 to 100 nM | O=C(O)CN1CCc2nc(-c3ccc(OCc4ccc(Cl)c(Cl)c4)cc3)ncc2C1 [Compound 30, 2-(2-(4-((3,4-dichlorobenzyl)oxy)phenyl)-7,8-dihydropyrido[4,3-d]pyrimidin-6(5H)-yl)acetic acid] |
| > 1000 nM | > 1000 nM | > 1000 nM | 100 to 1000 nM | O=C(O)CN1CCc2nc(-c3ccc(OCc4cccc(Cl)c4)cc3)ncc2C1 [Compound 32, 2-(2-(4-((3-chlorobenzyl)oxy)phenyl)-7,8-dihydropyrido[4,3-d]pyrimidin-6(5H)-yl)acetic acid] |
| > 1000 nM | < 1000 nM | < 1000 nM | 100 to 1000 nM | Cc1cccc(C)c1COc1ccc(-c2ncc3c(n2)CCN(CC(=O)O)C3)cc1 [Compound 33, 2-(2-(4-((2,6-dimethylbenzyl)oxy)phenyl)-7,8-dihydropyrido[4,3-d]pyrimidin-6(5H)-yl)acetic acid] |
| < 1000 nM | < 1000 nM | < 1000 nM | 100 to 1000 nM | O=C(O)CN1CCc2nc(-c3ccc(OCc4c(Cl)cccc4Cl)cc3)ncc2C1 [Compound 34, 2-(2-(4-((2,6-dichlorobenzyl)oxy)phenyl)-7,8-dihydropyrido[4,3-d]pyrimidin-6(5H)-yl)acetic acid] |
| < 1000 nM | < 1000 nM | < 1000 nM | 100 to 1000 nM | CCc1cccc(Cl)c1COc1ccc(-c2ncc3c(n2)CCN(CC(=O)O)C3)cc1 [Compound 35, 2-(2-(4-((2-chloro-6-ethylbenzyl)oxy)phenyl)-7,8-dihydropyrido[4,3-d]pyrimidin-6(5H)-yl)acetic acid] |
